This note sets out measurements from ChEMBL document CHEMBL3046822, “Synthesis, antiplatelet aggregation activity, and molecular modeling study of novel substituted-piperazine analogues” (2011).

Experiment [1] relates to Platelet. Kind of experiment: Antiaggregating activity in Homo sapiens (human) platelet rich plasma assessed as inhibition of adrenaline-induced platelet aggregation at 0.25 uM incubated for 4 min prior to adrenaline-induction measured for 5.5 min by turbidometric analysis. The class given is functional, cell-free.
Experiment [2] deals with Platelet. Kind of experiment: Antiaggregating activity in Homo sapiens (human) platelet rich plasma assessed as inhibition of adrenaline-induced platelet aggregation at 1 uM incubated for 4 min prior to adrenaline-induction measured for 5.5 min by turbidometric analysis. The class given is functional, cell-free.
The nature of experiment [3]: Antiaggregating activity in Homo sapiens (human) platelet rich plasma assessed as disaggregation of arachidonic acid-induced platelet aggregation at 0.25 uM incubated for 4 min prior to arachidonic acid-induction measured for 5.5 min by turbidometric analysis relative to control. The class given is functional.
In experiment [4] the test system is Platelet. As to the kind of experiment: Antiaggregating activity in Homo sapiens (human) platelet rich plasma assessed as inhibition of collagen-induced platelet aggregation at 1 uM incubated for 4 min prior to collagen-induction measured for 5.5 min by turbidometric analysis. The class given is functional, cell-free.
Experiment [5] can be described thus: Antiaggregating activity in Homo sapiens (human) platelet rich plasma assessed as ristocetin-induced platelet aggregation at 1 uM incubated for 4 min prior to ristocetin-induction measured for 5.5 min by turbidometric analysis (reference value: 65 to 99%). The class given is functional.
Experiment [6] in a line: Antiaggregating activity in Homo sapiens (human) platelet rich plasma assessed as collagen-induced platelet aggregation at 0.1 uM incubated for 4 min prior to collagen-induction measured for 5.5 min by turbidometric analysis (reference value: 50 to 98%). The class given is functional.
Experiment [7] can be described thus: Antiaggregating activity in Homo sapiens (human) platelet rich plasma assessed as ADP-induced platelet aggregation at 0.25 uM incubated for 4 min prior to ADP-induction measured for 5.5 min by turbidometric analysis (reference value: 54 to 88%). The experiment is classed as functional.
Experiment [8] is described as follows: Antiaggregating activity in Homo sapiens (human) platelet rich plasma assessed as ADP-induced platelet aggregation at 0.5 uM incubated for 4 min prior to ADP-induction measured for 5.5 min by turbidometric analysis (reference value: 54 to 88%). The experiment is classed as functional.
A short description of experiment [9]: Antiaggregating activity in Homo sapiens (human) platelet rich plasma assessed as collagen-induced platelet aggregation at 0.25 uM incubated for 4 min prior to collagen-induction measured for 5.5 min by turbidometric analysis (reference value: 50 to 98%). The experiment is classed as functional.
Experiment [10] is described as follows: Antiaggregating activity in Homo sapiens (human) platelet rich plasma assessed as ristocetin-induced platelet aggregation at 0.5 uM incubated for 4 min prior to ristocetin-induction measured for 5.5 min by turbidometric analysis (reference value: 65 to 99%). The class given is functional.
A short description of experiment [11]: Antiaggregating activity in Homo sapiens (human) platelet rich plasma assessed as ADP-induced platelet aggregation at 0.1 uM incubated for 4 min prior to ADP-induction measured for 5.5 min by turbidometric analysis (reference value: 54 to 88%). The experiment is classed as functional.
In experiment [12] the test system is Platelet. As to the kind of experiment: Antiaggregating activity in Homo sapiens (human) platelet rich plasma assessed as inhibition of arachidonic acid-induced platelet aggregation at 1 uM incubated for 4 min prior to arachidonic acid-induction measured for 5.5 min by turbidometric analysis. The class given is functional, cell-free.
Experiment [13] concerns Platelet. As to the kind of experiment: Antiaggregating activity in Homo sapiens (human) platelet rich plasma assessed as inhibition of adrenaline-induced platelet aggregation at 0.5 uM incubated for 4 min prior to adrenaline-induction measured for 5.5 min by turbidometric analysis. The experiment is classed as functional, cell-free.
The test system of experiment [14] is Platelet. Kind of experiment: Antiaggregating activity in Homo sapiens (human) platelet rich plasma assessed as inhibition of ADP-induced platelet aggregation at 1 uM incubated for 4 min prior to ADP-induction measured for 5.5 min by turbidometric analysis. The experiment is classed as functional, cell-free.
Experiment [15] relates to Platelet. As to the kind of experiment: Antiaggregating activity in Homo sapiens (human) platelet rich plasma assessed as inhibition of adrenaline-induced platelet aggregation at 0.1 uM incubated for 4 min prior to adrenaline-induction measured for 5.5 min by turbidometric analysis. The experiment is classed as functional, cell-free.
Experiment [16] concerns Platelet. Kind of experiment: Antiaggregating activity in Homo sapiens (human) platelet rich plasma assessed as inhibition of collagen-induced platelet aggregation at 0.5 uM incubated for 4 min prior to collagen-induction measured for 5.5 min by turbidometric analysis. The experiment is classed as functional, cell-free.
Experiment [17] in a line: Antiaggregating activity in Homo sapiens (human) platelet rich plasma assessed as ristocetin-induced platelet aggregation at 0.25 uM incubated for 4 min prior to ristocetin-induction measured for 5.5 min by turbidometric analysis (reference value: 65 to 99%). The experiment is classed as functional.
Experiment [18] can be described thus: Antiaggregating activity in Homo sapiens (human) platelet rich plasma assessed as ristocetin-induced platelet aggregation at 0.1 uM incubated for 4 min prior to ristocetin-induction measured for 5.5 min by turbidometric analysis (reference value: 65 to 99%). The experiment is classed as functional.
Experiment [19] is described as follows: Antiaggregating activity in Homo sapiens (human) platelet rich plasma assessed as disaggregation of arachidonic acid-induced platelet aggregation at 0.5 uM incubated for 4 min prior to arachidonic acid-induction measured for 5.5 min by turbidometric analysis relative to control. The experiment is classed as functional.
Experiment [20] can be described thus: Antiaggregating activity in Homo sapiens (human) platelet rich plasma assessed as arachidonic acid-induced platelet aggregation at 0.1 uM incubated for 4 min prior to arachidonic acid-induction measured for 5.5 min by turbidometric analysis (reference value: 55 to 100%). The experiment is classed as functional.
Experiment [21] relates to Platelet. Kind of experiment: Antiaggregating activity in Homo sapiens (human) platelet rich plasma assessed as inhibition of collagen-induced platelet aggregation at 0.25 uM incubated for 4 min prior to collagen-induction measured for 5.5 min by turbidometric analysis. The experiment is classed as functional.
Experiment [22] can be described thus: Antiaggregating activity in Homo sapiens (human) platelet rich plasma assessed as disaggregation of ristocetin-induced platelet aggregation at 0.25 uM incubated for 4 min prior to ristocetin-induction measured for 5.5 min by turbidometric analysis relative to control. The class given is functional.
The subject of experiment [23] is Platelet. As to the kind of experiment: Antiaggregating activity in Homo sapiens (human) platelet rich plasma assessed as inhibition of arachidonic acid-induced platelet aggregation at 0.5 uM incubated for 4 min prior to arachidonic acid-induction measured for 5.5 min by turbidometric analysis. The experiment is classed as functional.
The test system of experiment [24] is Platelet. As to the kind of experiment: Antiaggregating activity in Homo sapiens (human) platelet rich plasma assessed as inhibition of ADP-induced platelet aggregation at 0.5 uM incubated for 4 min prior to ADP-induction measured for 5.5 min by turbidometric analysis. The experiment is classed as functional, cell-free.
The nature of experiment [25]: Antiaggregating activity in Homo sapiens (human) platelet rich plasma assessed as disaggregation of ADP-induced platelet aggregation at 0.25 uM incubated for 4 min prior to ADP-induction measured for 5.5 min by turbidometric analysis relative to control. The class given is functional.
The test system of experiment [26] is Platelet. Kind of experiment: Antiaggregating activity in Homo sapiens (human) platelet rich plasma assessed as inhibition of arachidonic acid-induced platelet aggregation at 0.1 uM incubated for 4 min prior to arachidonic acid-induction measured for 5.5 min by turbidometric analysis. The class given is functional, cell-free.
Experiment [27] is described as follows: Antiaggregating activity in Homo sapiens (human) platelet rich plasma assessed as disaggregation of ristocetin-induced platelet aggregation at 0.5 uM incubated for 4 min prior to ristocetin-induction measured for 5.5 min by turbidometric analysis relative to control. The experiment is classed as functional.
In experiment [28] the test system is Platelet. Kind of experiment: Antiaggregating activity in Homo sapiens (human) platelet rich plasma assessed as inhibition of arachidonic acid-induced platelet aggregation at 0.25 uM incubated for 4 min prior to arachidonic acid-induction measured for 5.5 min by turbidometric analysis. The experiment is classed as functional, cell-free.
In experiment [29] the test system is Platelet. Kind of experiment: Antiaggregating activity in Homo sapiens (human) platelet rich plasma assessed as inhibition of adrenaline-induced platelet aggregation at 0.8 uM incubated for 4 min prior to adrenaline-induction measured for 5.5 min by turbidometric analysis. The class given is functional, cell-free.
In experiment [30] the test system is Platelet. As to the kind of experiment: Antiaggregating activity in Homo sapiens (human) platelet rich plasma assessed as inhibition of collagen-induced platelet aggregation at 2 uM incubated for 4 min prior to collagen-induction measured for 5.5 min by turbidometric analysis. The experiment is classed as functional, cell-free.
The subject of experiment [31] is Platelet. As to the kind of experiment: Antiaggregating activity in Homo sapiens (human) platelet rich plasma assessed as inhibition of ADP-induced platelet aggregation at 0.8 uM incubated for 4 min prior to ADP-induction measured for 5.5 min by turbidometric analysis. The experiment is classed as functional, cell-free.
Experiment [32] in a line: Antiaggregating activity in Homo sapiens (human) platelet rich plasma assessed as collagen-induced platelet aggregation at 0.5 uM incubated for 4 min prior to collagen-induction measured for 5.5 min by turbidometric analysis (reference value: 50 to 98%). The class given is functional.
Experiment [33] is described as follows: Antiaggregating activity in Homo sapiens (human) platelet rich plasma assessed as ristocetin-induced platelet aggregation at 0.8 uM incubated for 4 min prior to ristocetin-induction measured for 5.5 min by turbidometric analysis (reference value: 65 to 99%). The experiment is classed as functional.
Experiment [34] concerns Platelet. Kind of experiment: Antiaggregating activity in Homo sapiens (human) platelet rich plasma assessed as inhibition of adrenaline-induced platelet aggregation at 2 uM incubated for 4 min prior to adrenaline-induction measured for 5.5 min by turbidometric analysis. The experiment is classed as functional, cell-free.
Experiment [35] deals with Platelet. As to the kind of experiment: Antiaggregating activity in Homo sapiens (human) platelet rich plasma assessed as inhibition of arachidonic acid-induced platelet aggregation at 0.8 uM incubated for 4 min prior to arachidonic acid-induction measured for 5.5 min by turbidometric analysis. The class given is functional, cell-free.
For experiment [36], the system named is Platelet. Kind of experiment: Antiaggregating activity in Homo sapiens (human) platelet rich plasma assessed as inhibition of ristocetin-induced platelet aggregation at 2 uM incubated for 4 min prior to ristocetin-induction measured for 5.5 min by turbidometric analysis. The experiment is classed as functional, cell-free.
The test system of experiment [37] is Platelet. Kind of experiment: Antiaggregating activity in Homo sapiens (human) platelet rich plasma assessed as inhibition of collagen-induced platelet aggregation at 0.8 uM incubated for 4 min prior to collagen-induction measured for 5.5 min by turbidometric analysis. The class given is functional, cell-free.
The test system of experiment [38] is Platelet. Kind of experiment: Antiaggregating activity in Homo sapiens (human) platelet rich plasma assessed as inhibition of ADP-induced platelet aggregation at 2 uM incubated for 4 min prior to ADP-induction measured for 5.5 min by turbidometric analysis. The class given is functional, cell-free.
A short description of experiment [39]: Antiaggregating activity in Homo sapiens (human) platelet rich plasma assessed as arachidonic acid-induced platelet aggregation at 0.5 uM incubated for 4 min prior to arachidonic acid-induction measured for 5.5 min by turbidometric analysis (reference value: 55 to 100%). The experiment is classed as functional.
Experiment [40] deals with Platelet. As to the kind of experiment: Antiaggregating activity in Homo sapiens (human) platelet rich plasma assessed as inhibition of arachidonic acid-induced platelet aggregation at 2 uM incubated for 4 min prior to arachidonic acid-induction measured for 5.5 min by turbidometric analysis. The experiment is classed as functional, cell-free.

SMILES strings stand for the structures. Calls of active or inactive are those of the source. The rule behind the calls is not given here.

As for `Br.O=C(C1CCCN(Cc2ccc(Br)cc2)C1)N1CCN(c2ccccn2)CC1` (stereo not given), the inhibition entry in experiment [1], in experiment [2], in experiment [4], in experiment [12], in experiment [13] and in [14] was “Active” each time. The inhibition result in experiment [15] and in experiment [16] was “Active” in each case. In addition, the Activity in experiment [3] is 22%; in [5], 24%; in [6] it was 67%; in experiment [7], 65%; in experiment [8], 18%; in experiment [9] it was 64%. Moreover, the Activity in experiment [10] was 63%; in [11] it was 76%; in experiment [17] it was 81%; in experiment [18], 91%; in [19], 28%; in experiment [20], 72%.

For the compound `Br.O=C(C1CCCN(Cc2ccc([N+](=O)[O-])cc2)C1)N1CCN(c2ccccc2Cl)CC1` (stereo not given), the inhibition entry in experiment [1], in experiment [2], in experiment [4], in experiment [21], in experiment [23] and in experiment [24] was “Active” each time. The inhibition entry in experiment [12], in experiment [13], in experiment [14], in [15], in [16] and in experiment [26] was “Active” throughout. For the same compound, in experiment [28], the inhibition result is “Active”. In addition, the Activity in experiment [22] is 58%; in [5] it was 23%; in experiment [6], 58%; in experiment [11], 57%; in experiment [25], 28%; in [18], 66%. In [27], the Activity is listed as 50%.

Turning to `COc1cc(C(=O)N2CCCC(C(=O)N3CCN(c4ncccn4)CC3)C2)cc(OC)c1OC.Cl` (stereo not given), the inhibition entry in experiment [29], in experiment [2], in experiment [4], in [30], in [31] and in [34] was “Active” throughout. Also, the inhibition result in experiment [35], in [36], in experiment [37], in experiment [38], in experiment [12] and in experiment [13] was “Active” throughout. Also, the inhibition entry in [14], in [15] and in experiment [40] was “Active” each time. Also, the Activity stood at 75% in experiment [5]; 67% in experiment [6]; 78% in experiment [32]; 55% in experiment [33]; 50% in [8]; 68% in experiment [10]. Further, the Activity amounted to 72% in experiment [11], 54% in [39], 77% in [18] and 76% in experiment [20].
